Data: ChEMBL document CHEMBL5625231, “Targeting autophagy with small-molecule activators for potential therapeutic purposes” (Eur J Med Chem, 2023)
Values belong to the molecule of their own block, whether it stands above or below them.

Key:
MDA-MB-231 = assay: Antiproliferative activity against human MDA-MB-231 cells assessed reduction in cell viability incubated for 24 hrs by MTT assay; type: functional, cell-based; settings: MDA-MB-231, 24 h
[1] = target: T1, Serine/threonine-protein kinase ULK1 (Homo sapiens) (UniProt O75385); assay: Agonist activity at ULK1 (unknown origin) at 100 nM incubated for 60 mins in presence of ATP by ADP-glo assay relative to control; settings: filed as agonist
T1 sequence (whole entry): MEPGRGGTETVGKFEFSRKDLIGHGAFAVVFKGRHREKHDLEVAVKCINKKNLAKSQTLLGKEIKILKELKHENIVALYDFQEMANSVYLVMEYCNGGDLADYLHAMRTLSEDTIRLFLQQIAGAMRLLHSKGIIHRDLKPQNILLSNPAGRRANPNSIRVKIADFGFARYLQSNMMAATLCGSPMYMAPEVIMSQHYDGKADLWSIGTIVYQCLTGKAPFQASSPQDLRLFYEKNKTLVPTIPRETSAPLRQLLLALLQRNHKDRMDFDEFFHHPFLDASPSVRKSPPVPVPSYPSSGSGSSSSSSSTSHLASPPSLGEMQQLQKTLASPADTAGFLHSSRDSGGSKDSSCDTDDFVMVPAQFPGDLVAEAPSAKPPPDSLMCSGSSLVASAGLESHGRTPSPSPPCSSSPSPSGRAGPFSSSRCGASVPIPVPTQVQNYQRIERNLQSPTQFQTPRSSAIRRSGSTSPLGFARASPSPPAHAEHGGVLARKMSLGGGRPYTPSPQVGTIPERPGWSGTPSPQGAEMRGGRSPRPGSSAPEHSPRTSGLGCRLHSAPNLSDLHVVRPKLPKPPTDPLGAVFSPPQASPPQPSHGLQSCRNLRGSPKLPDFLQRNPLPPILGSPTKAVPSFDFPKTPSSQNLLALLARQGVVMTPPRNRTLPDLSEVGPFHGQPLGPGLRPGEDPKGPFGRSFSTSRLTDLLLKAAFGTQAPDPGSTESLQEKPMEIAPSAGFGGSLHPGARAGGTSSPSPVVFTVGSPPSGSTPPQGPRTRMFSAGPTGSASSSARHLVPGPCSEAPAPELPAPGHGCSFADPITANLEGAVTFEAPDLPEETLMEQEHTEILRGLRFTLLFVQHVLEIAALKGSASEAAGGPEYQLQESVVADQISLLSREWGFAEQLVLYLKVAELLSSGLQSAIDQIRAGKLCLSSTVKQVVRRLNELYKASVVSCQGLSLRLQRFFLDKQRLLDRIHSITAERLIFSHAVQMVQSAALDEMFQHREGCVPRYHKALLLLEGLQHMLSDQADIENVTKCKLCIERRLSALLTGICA

Forkhead box protein O1 = Forkhead box protein O1 (Homo sapiens, UniProt Q12778); assay: Activation of FoxO1(unknown origin)
Sequence of Forkhead box protein O1 (Q12778 whole entry): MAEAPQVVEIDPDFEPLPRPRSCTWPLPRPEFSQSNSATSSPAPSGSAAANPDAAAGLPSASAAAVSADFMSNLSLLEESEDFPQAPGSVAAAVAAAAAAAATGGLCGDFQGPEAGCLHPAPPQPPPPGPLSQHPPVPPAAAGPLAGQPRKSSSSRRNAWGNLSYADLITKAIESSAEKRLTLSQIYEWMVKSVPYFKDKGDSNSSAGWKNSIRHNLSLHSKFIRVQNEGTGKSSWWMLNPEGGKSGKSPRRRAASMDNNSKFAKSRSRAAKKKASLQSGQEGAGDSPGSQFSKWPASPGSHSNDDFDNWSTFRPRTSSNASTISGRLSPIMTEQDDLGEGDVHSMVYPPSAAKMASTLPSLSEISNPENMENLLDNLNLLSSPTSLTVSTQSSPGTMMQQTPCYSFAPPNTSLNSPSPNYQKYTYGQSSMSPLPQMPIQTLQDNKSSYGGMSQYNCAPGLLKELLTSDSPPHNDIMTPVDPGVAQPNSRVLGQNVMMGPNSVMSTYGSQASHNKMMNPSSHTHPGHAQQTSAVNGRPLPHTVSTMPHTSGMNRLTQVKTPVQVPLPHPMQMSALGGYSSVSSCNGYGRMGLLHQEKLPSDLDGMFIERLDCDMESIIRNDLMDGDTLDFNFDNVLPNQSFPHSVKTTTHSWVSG

[2] = Activation of AMPK in rat hepatocyte using SAMS as substrate incubated for 30 mins in presence of [gamma-33P]ATP; type: cell-based
Transcription factor EB = target: T2, Transcription factor EB (Homo sapiens, UniProt P19484); assay: Binding affinity to full length N-terminal his6-tagged human TFEB expressed in Escherichia coli by isothermal titration calorimetry analysis
T2 sequence (P19484 whole entry): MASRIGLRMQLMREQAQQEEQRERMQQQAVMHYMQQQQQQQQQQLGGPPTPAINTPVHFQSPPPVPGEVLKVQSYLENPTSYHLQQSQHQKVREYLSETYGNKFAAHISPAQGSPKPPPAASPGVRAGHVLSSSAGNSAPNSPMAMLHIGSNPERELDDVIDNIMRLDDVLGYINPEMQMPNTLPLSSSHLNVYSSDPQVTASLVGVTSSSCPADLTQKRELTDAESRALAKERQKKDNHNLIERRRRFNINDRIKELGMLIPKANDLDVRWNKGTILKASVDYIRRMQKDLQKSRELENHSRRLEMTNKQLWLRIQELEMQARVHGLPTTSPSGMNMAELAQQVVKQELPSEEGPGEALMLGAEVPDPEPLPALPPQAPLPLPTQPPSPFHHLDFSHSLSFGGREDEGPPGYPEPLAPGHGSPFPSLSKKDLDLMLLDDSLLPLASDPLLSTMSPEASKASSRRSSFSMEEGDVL

Compound: CC(C)(C)OC(=O)N1CCN(CC(OCc2ccc3ccccc3c2)c2ccc(Cl)cc2Cl)CC1 (stereo not drawn)
Activity [1]: 154% | IC50 (MDA-MB-231): 20900 nM

Compound: N#Cc1c(O)c2c(-c3ccccc3)csc2[nH]c1=O
EC50 [2]: 38000 nM

Compound: N#Cc1c(O)c2c(-c3ccc(-c4ccccc4O)cc3)csc2[nH]c1=O
EC50 [2]: 800 nM

Compound: COc1ccccc1/C=C/C(=O)/C=C/c1ccccc1OC
EC50 (Transcription factor EB): 2170 nM

Compound: CC(C)CN(CC(=O)N1CCN(CC(OCc2ccc3ccccc3c2)c2ccc(Cl)cc2Cl)CC1)CC(C)C (stereo not drawn)
Activity [1]: 196%

Results, then the molecule that gave them:

IC50 (MDA-MB-231): 750 nM
Compound: COC(=O)Nc1nc2cc(C(=O)c3ccc(F)cc3)ccc2[nH]1 [FLUBENDAZOLE]

EC50 (Forkhead box protein O1): 420 nM
Compound: Cc1[nH]c2ccccc2c1CCNCc1ccc(/C=C/C(=O)NO)cc1 [PANOBINOSTAT]
